# Reference: patent US20160010047A1, “DEVICE AND METHOD FOR WETTING A SAMPLE WITH AN AEROSOL” (Helmholtz Zentrum Muenchen Deutsches Forschungszentrum fuer …, priority 2013, published 2016)
# Tested on: human pulmonary cell line (A549) stimulated with TNFα; interleukin 8 (IL-8)
# Test: Anti-inflammatory effect on TNFα-stimulated A549 cells (IL-8 as inflammatory marker), substance applied as aerosol at the ALI with device 2 or pipetted on submerged cells
# Type: cell-based
# Details: FIG. 4
# From the text: On the other hand, if polarized lung epithelial cells (e.g. primary cells) are used, significant differences in the biological response can be expected. After stimulation of A549 cells with the tumor necrosis factor α (TNF α), the interleukin 8 (IL-8) as inflammatory marker is induced approximately 7-fold (corresponds to value 1 in FIG. 4), relative to the basal value (non-stimulated cells). […] This exemplifies that with device 2, aerosolized active substances can be applied accurately dosed and without loss of bioactivity (e.g. due to shear stresses during nebulization) on human pulmonary cells at the ALI. Thus, device 2 is suitable for the systematic screening of substances with respect to their potential as an active ingredient in aerosolized form.
# This device 2 is thereby validated as a tool for quantitative drug screening for aerosolized liquid substances.
smiles,measurement,setting,value
CC(C)C[C@H](NC(=O)[C@H](Cc1ccccc1)NC(=O)c1cnccn1)B(O)O [Bortezomib],dose-response curve after administration in aerosolized form with device 2 (ALI) compared with reference curve (substance pipetted on submerged cells),"A549 cells at the ALI, TNFα-stimulated",identical to the reference curve
same,"reduction of the TNFα-induced inflammatory effect (IL-8 induction), factor","A549 cells, non-polarized, stimulated with TNFα, dose-dependent",≤ 2
